Data: PubChem BioAssay AID330 (DTP/NCI, 2004)
Several values for one entry are separate records, joined by “and”; a condition that tells them apart may be missing. Equal entries are not always repeated. Inconclusive results and toxic doses are left out. Bridge positions count the residues as written; N and C are the ends. Peptide text beside a SMILES is read from it. I, II: the chains in the order shown.

Tested on: P388 leukemia ip, CD2F1 mice, survival T/C
Assay: NCI In Vivo Anticancer Drug Screen. Data for tumor model P388 Leukemia (intraperitoneal) in CD2F1 (CDF1) mice
Settings: endpoint: median survival time, higher = longer survival
Experimental: The antitumor activity of compounds was measured in mice bearing transplantable tumors. Survival or tumor size were measured and the results are expressed as the measurement made in the treated group (T) divided by the measurement made in the vehicle treated control group (C). The tumor model used in this assay is P388 Leukemia (intraperitoneal) in CD2F1 (CDF1) mice

[1] = dose: 60.0 mg/kg/injection, schedule: Q01DX005 (ip), vehicle: Klucel (hydroxypropylcellulose) (HPC)
[2] = dose: 120.0 mg/kg/injection, schedule: Q01DX005 (ip), vehicle: Klucel (hydroxypropylcellulose) (HPC)
[3] = dose: 240.0 mg/kg/injection, schedule: Q01DX005 (ip), vehicle: Klucel (hydroxypropylcellulose) (HPC)
[4] = dose: 50.0 mg/kg/injection, schedule: Q01DX005 (ip), vehicle: saline
[5] = dose: 100.0 mg/kg/injection, schedule: Q01DX005 (ip), vehicle: saline
[6] = dose: 200.0 mg/kg/injection, schedule: Q01DX005 (ip), vehicle: saline
[7] = dose: 50.0 mg/kg/injection, schedule: Q01DX005 (ip), vehicle: saline with Tween-80
[8] = dose: 100.0 mg/kg/injection, schedule: Q01DX005 (ip), vehicle: saline with Tween-80
[9] = dose: 50.0 mg/kg/injection, schedule: Q01DX005 (ip), vehicle: Klucel (hydroxypropylcellulose) (HPC)
[10] = dose: 100.0 mg/kg/injection, schedule: Q01DX005 (ip), vehicle: Klucel (hydroxypropylcellulose) (HPC)
[11] = dose: 200.0 mg/kg/injection, schedule: Q01DX005 (ip), vehicle: Klucel (hydroxypropylcellulose) (HPC)
[12] = dose: 6.25 mg/kg/injection, schedule: Q01DX009 (ip), vehicle: Klucel (hydroxypropylcellulose) (HPC)
[13] = dose: 12.5 mg/kg/injection, schedule: Q01DX009 (ip), vehicle: Klucel (hydroxypropylcellulose) (HPC)
[14] = dose: 25.0 mg/kg/injection, schedule: Q01DX009 (ip), vehicle: Klucel (hydroxypropylcellulose) (HPC)
[15] = dose: 50.0 mg/kg/injection, schedule: Q01DX009 (ip), vehicle: Klucel (hydroxypropylcellulose) (HPC)
[16] = dose: 100.0 mg/kg/injection, schedule: Q01DX009 (ip), vehicle: Klucel (hydroxypropylcellulose) (HPC)
[17] = dose: 200.0 mg/kg/injection, schedule: Q01DX009 (ip), vehicle: Klucel (hydroxypropylcellulose) (HPC)
[18] = dose: 100.0 mg/kg/injection, schedule: Q04DX002 (ip), vehicle: saline with Tween-80

SMILES: Cn1cc(Cl)nc1CO
- T/C (dose: 50.0 mg/kg/injection, schedule: Q04DX003 (ip), vehicle: saline sonified): 95 % of control
- T/C (dose: 100.0 mg/kg/injection, schedule: Q04DX003 (ip), vehicle: saline sonified): 100 % of control
- T/C (dose: 200.0 mg/kg/injection, schedule: Q04DX003 (ip), vehicle: saline sonified): 100 % of control

SMILES: Cc1cc(Oc2cnc(=O)[nH]c2)cs1
- T/C [1]: 100 % of control
- T/C [2]: 94 % of control
- T/C [3]: 94 % of control

SMILES: Oc1ccc2c(ccc3[nH]cnc32)c1
- T/C [4]: 98 % of control
- T/C [5]: 101 % of control
- T/C [6]: 111 % of control

SMILES: c1ccc2c(OCC3CO3)c3ccccc3nc2c1 (stereo not drawn)
- T/C [7]: 118 % of control
- T/C [8]: 108 % of control
- T/C (dose: 200.0 mg/kg/injection, schedule: Q01DX005 (ip), vehicle: saline with Tween-80): 102 % of control

SMILES: COc1cc([C@@H]2c3cc(O)c(OC)cc3C[C@H]3C(=O)OC[C@@H]23)ccc1O
- T/C [9]: 96 % of control
- T/C [10]: 96 % of control
- T/C [11]: 100 % of control

SMILES: CC(=O)Nc1ccc(C(=O)N/N=C/c2ccccc2O)cc1
- T/C [12]: 90 % of control
- T/C [13]: 93 % of control
- T/C [14]: 88 % of control

SMILES: NCP1(=O)CNC(=O)NC1
- T/C [4]: 116 % of control
- T/C [5]: 103 % of control
- T/C [6]: 113 % of control

SMILES: Nc1nc2ncc([N+](=O)[O-])cc2c(=O)[nH]1
- T/C [7]: 102 % of control
- T/C [8]: 100 % of control

SMILES: CNC(=O)OCC1=CC(=O)C(OC)=C(OC)C1=O
- T/C (dose: 7.5 mg/kg/injection, schedule: Q01DX005 (ip), vehicle: saline with Tween-80): 104 % of control
- T/C (dose: 15.0 mg/kg/injection, schedule: Q01DX005 (ip), vehicle: saline with Tween-80): 100 % of control
- T/C (dose: 30.0 mg/kg/injection, schedule: Q01DX005 (ip), vehicle: saline with Tween-80): 100 % of control

SMILES: O=C(Nc1cccc(C(F)(F)F)c1)c1cc2cc(Br)ccc2oc1=O
- T/C [1]: 102 % of control
- T/C [2]: 96 % of control
- T/C [3]: 92 % of control

SMILES: N#CC(C#N)=C/C=C/c1cccc([N+](=O)[O-])c1
- T/C (dose: 3.12 mg/kg/injection, schedule: Q01DX009 (ip), vehicle: Klucel (hydroxypropylcellulose) (HPC)): 114 % of control
- T/C [12]: 123 % of control
- T/C (dose: 8.2 mg/kg/injection, schedule: Q01DX009 (ip), vehicle: Klucel (hydroxypropylcellulose) (HPC)): 118 % of control
- T/C [14]: 100 % of control

SMILES: CC12CCC3C(C1)C(C(=O)O2)C(=O)OC3(C)C (stereo not drawn)
- T/C [15]: 93 % of control
- T/C [16]: 101 % of control
- T/C [17]: 97 % of control

SMILES: Cc1ccc(N=Cc2ccc(C=Nc3ccc(C)cc3C)cc2)c(C)c1
- T/C [15]: 92 % of control
- T/C [16]: 91 % of control
- T/C [17]: 97 % of control

SMILES: CCC1=CC(C(O)CC(C)C)C(C)(Cc2ccc(CC)cn2)NC1c1ccccc1 (stereo not drawn)
- T/C [18]: 96 % of control

SMILES: CC(=O)OCc1c(-c2ccccc2)nc2n1CCS2
- T/C (dose: 12.5 mg/kg/injection, schedule: Q01DX001 (ip), vehicle: Klucel (hydroxypropylcellulose) (HPC)): 101 % of control and 95 % of control
- T/C (dose: 25.0 mg/kg/injection, schedule: Q01DX001 (ip), vehicle: Klucel (hydroxypropylcellulose) (HPC)): 114 % of control and 106 % of control
- T/C (dose: 50.0 mg/kg/injection, schedule: Q01DX001 (ip), vehicle: Klucel (hydroxypropylcellulose) (HPC)): 108 % of control and 107 % of control
- T/C (dose: 100.0 mg/kg/injection, schedule: Q01DX001 (ip), vehicle: Klucel (hydroxypropylcellulose) (HPC)): 86 % of control

SMILES: Brc1nsc(SSc2nc(Br)ns2)n1
- T/C [9]: 103 % of control
- T/C [10]: 103 % of control
- T/C [11]: 102 % of control

SMILES: CC(=O)/C=N/OC(=O)c1ccccc1
- T/C [18]: 104 % of control
- T/C (dose: 200.0 mg/kg/injection, schedule: Q04DX002 (ip), vehicle: saline with Tween-80): 99 % of control

SMILES: CNC(=O)OCc1c(COC(=O)NC)c(-c2ccccc2)n(C)c1-c1ccccc1
- T/C (dose: 10.0 mg/kg/injection, schedule: Q01DX009 (ip), vehicle: distilled water + Tween-80): 164 % of control
- T/C (dose: 12.5 mg/kg/injection, schedule: Q01DX009 (ip), vehicle: distilled water + Tween-80): 181 % of control
- T/C (dose: 20.0 mg/kg/injection, schedule: Q01DX009 (ip), vehicle: distilled water + Tween-80): 205 % of control
- T/C (dose: 40.0 mg/kg/injection, schedule: Q01DX009 (ip), vehicle: distilled water + Tween-80): 124 % of control

SMILES: CN1CC2CCCCN2CC(Cc2ccccc2)([N+](=O)[O-])C1 (stereo not drawn)
- T/C (dose: 100.0 mg/kg/injection, schedule: Q04DX002 (ip), vehicle: saline): 109 % of control
- T/C (dose: 200.0 mg/kg/injection, schedule: Q04DX002 (ip), vehicle: saline): 109 % of control

SMILES: Cc1cc(C)c(S(=O)(=O)O)c(C)c1Nc1ccc(Nc2c(C)cc(C)c(S(=O)(=O)O)c2C)c2c1C(=O)c1ccccc1C2=O
- T/C (dose: 50.0 mg/kg/injection, schedule: Q01DX009 (ip), vehicle: saline with Tween-80): 92 % of control
- T/C (dose: 100.0 mg/kg/injection, schedule: Q01DX009 (ip), vehicle: saline with Tween-80): 91 % of control

SMILES: C[N+](C)(C)CC1CS1 (stereo not drawn)
- T/C (dose: 4.5 mg/kg/injection, schedule: Q01DX009 (ip), vehicle: saline): 104 % of control
- T/C (dose: 9.0 mg/kg/injection, schedule: Q01DX009 (ip), vehicle: saline): 95 % of control
- T/C (dose: 18.0 mg/kg/injection, schedule: Q01DX009 (ip), vehicle: saline): 100 % of control

SMILES: CC(C)N1C(C)(C)C1(C)C#N (stereo not drawn)
- T/C (dose: 60.0 mg/kg/injection, schedule: Q01DX005 (ip), vehicle: saline): 100 % of control
- T/C (dose: 120.0 mg/kg/injection, schedule: Q01DX005 (ip), vehicle: saline): 104 % of control

SMILES: CCCCCCCCCCCCCCCCCCSC1=CC(=O)C(OC)=C(OC)C1=O
- T/C (dose: 3.13 mg/kg/injection, schedule: Q01DX009 (ip), vehicle: Klucel (hydroxypropylcellulose) (HPC)): 92 % of control
- T/C [12]: 100 % of control
- T/C [13]: 100 % of control
- T/C [14]: 92 % of control
- T/C [15]: 97 % of control

SMILES: CCC(CC)c1ccccn1
- T/C (dose: 100.0 mg/kg/injection, schedule: Q01DX009 (ip), vehicle: saline): 101 % of control
- T/C (dose: 100.0 mg/kg/injection, schedule: Q04DX003 (ip), vehicle: saline): 122 % of control
- T/C (dose: 200.0 mg/kg/injection, schedule: Q01DX009 (ip), vehicle: saline): 105 % of control

SMILES: CC(NC(=O)C(N)CSSCC(N)C(=O)NC(C)C(=O)O)C(=O)O (stereo not drawn) (I: H-Cys-Ala-OH / II: H-Cys-Ala-OH; disulfide I:1-II:1; configuration not given here)
- T/C [9]: 100 % of control
- T/C [10]: 104 % of control
- T/C [11]: 110 % of control

SMILES: CC(Cl)(C=O)c1ccccc1 (stereo not drawn)
- T/C (dose: 60.0 mg/kg/injection, schedule: Q01DX005 (ip), vehicle: saline with Tween-80): 100 % of control
- T/C (dose: 120.0 mg/kg/injection, schedule: Q01DX005 (ip), vehicle: saline with Tween-80): 97 % of control

SMILES: c1cc2nc(-c3ccc4oc(C5=NCCN5)cc4c3)[nH]c2cc1C1=NCCN1
- T/C (dose: 12.5 mg/kg/injection, schedule: Q01DX005 (ip), vehicle: saline): 98 % of control
- T/C (dose: 25.0 mg/kg/injection, schedule: Q01DX005 (ip), vehicle: saline): 113 % of control
- T/C [4]: 113 % of control and 118 % of control
